Assay results from ChEMBL document CHEMBL1201862, “PubChem BioAssay data set” (2004).
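Cultured in 96-well plates, cells were exposed to test compound for 48 hours across five concentrations. At the GI50, growth is halved.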 Activity calls are given as the source filed them. Rule as the data show it: active = GI50 up to about 1.1 µM and inactive = higher.

Legend:
Assay in all cases: NCI-60 cell line screen, 48 h
OVCAR-8 = tested on: OVCAR-8
NCI-H522 = tested on: NCI-H522
UO-31 = tested on: UO-31
ACHN = tested on: ACHN
PC-3 = tested on: PC-3
OVCAR-4 = tested on: OVCAR-4
Hs-578T = tested on: Hs-578T
SW-620 = tested on: SW-620
UACC-62 = tested on: UACC-62
MDA-MB-231 = tested on: MDA-MB-231
MDA-MB-435 = tested on: MDA-MB-435
EKVX = tested on: EKVX
MCF7 = tested on: MCF7
HL-60 = tested on: HL-60
DU-145 = tested on: DU-145
RPMI-8226 = tested on: RPMI-8226
OVCAR-5 = tested on: OVCAR-5
SN12C = tested on: SN12C
A498 = tested on: A498

Compound	GI50 (OVCAR-8)	GI50 (NCI-H522)	GI50 (UO-31)	GI50 (ACHN)	GI50 (PC-3)	GI50 (OVCAR-4)	GI50 (Hs-578T)	GI50 (SW-620)	GI50 (UACC-62)	GI50 (MDA-MB-231)	GI50 (MDA-MB-435)	GI50 (EKVX)	GI50 (MCF7)	GI50 (HL-60)	GI50 (DU-145)	GI50 (RPMI-8226)	GI50 (OVCAR-5)	GI50 (SN12C)	GI50 (A498)
N#C/C(=C\c1ccc(Cl)cc1)c1nc(-c2cc3ccccc3oc2=O)cs1	49.2 µM (inactive)	15.6 µM (inactive)	80.7 µM (inactive)	38.2 µM (inactive)	> 100 µM (inactive)	33.5 µM (inactive)	8.87 µM (inactive)	> 100 µM (inactive)	28.9 µM (inactive)	22 µM (inactive)	> 100 µM (inactive)	> 100 µM (inactive)	> 100 µM (inactive)	> 100 µM (inactive)	48.5 µM (inactive)	> 100 µM (inactive)	> 100 µM (inactive)	70.3 µM (inactive)	
CCCC(=O)OCC1(CO)C/C(=C/CC(C(C)C)C(C)C)C(=O)O1 (stereo unspecified)	> 100 µM (inactive)	38.7 µM (inactive)	> 100 µM (inactive)	> 100 µM (inactive)	> 100 µM (inactive)	> 100 µM (inactive)	> 100 µM (inactive)	> 100 µM (inactive)	> 100 µM (inactive)	> 100 µM (inactive)	> 100 µM (inactive)	> 100 µM (inactive)	> 100 µM (inactive)		> 100 µM (inactive)		> 100 µM (inactive)	> 100 µM (inactive)	> 100 µM (inactive)
CCOC(=O)c1c2c(n(Cc3ccccc3)c1C)C(=O)C(=O)c1ccccc1-2	0.237 µM (active)	0.778 µM (active)	0.906 µM (active)	0.275 µM (active)	0.807 µM (active)	0.0794 µM (active)	0.925 µM (active)	0.18 µM (active)	0.284 µM (active)	0.351 µM (active)	0.0612 µM (active)	0.726 µM (active)	0.293 µM (active)	0.0129 µM (active)	0.465 µM (active)	0.119 µM (active)	0.541 µM (active)	0.171 µM (active)	
OCN(CO)c1ccc2c(c1)Cc1cc(F)ccc1-2	19.7 µM (inactive)	19.5 µM (inactive)	19.6 µM (inactive)	17.6 µM (inactive)	16.7 µM (inactive)	17.8 µM (inactive)	12 µM (inactive)	12.4 µM (inactive)	16.6 µM (inactive)	16.4 µM (inactive)	18.1 µM (inactive)	14.7 µM (inactive)	18.6 µM (inactive)	29.1 µM (inactive)	23.2 µM (inactive)		19.1 µM (inactive)	18.2 µM (inactive)	
COc1ccc(C(=O)N2CCN(c3ccc4c(c3)OCC(=O)N4)CC2)cc1	> 100 µM (inactive)	95.9 µM (inactive)	> 100 µM (inactive)	> 100 µM (inactive)	> 100 µM (inactive)	> 100 µM (inactive)	> 100 µM (inactive)	> 100 µM (inactive)	> 100 µM (inactive)	> 100 µM (inactive)	> 100 µM (inactive)	94 µM (inactive)	> 100 µM (inactive)	64.6 µM (inactive)	> 100 µM (inactive)	> 100 µM (inactive)	> 100 µM (inactive)	> 100 µM (inactive)	
CCOC(=O)c1c[nH]c(C(=O)C=[N+]=[N-])c1C1CCN(CC)C1=S (stereo unspecified)	> 100 µM (inactive)	> 100 µM (inactive)	> 100 µM (inactive)	> 100 µM (inactive)	> 100 µM (inactive)	> 100 µM (inactive)	> 100 µM (inactive)	> 100 µM (inactive)	> 100 µM (inactive)	> 100 µM (inactive)	> 100 µM (inactive)	> 100 µM (inactive)	> 100 µM (inactive)		> 100 µM (inactive)	> 100 µM (inactive)	> 100 µM (inactive)		> 100 µM (inactive)
Clc1c(Cl)c(Cl)c2nn(C3CCCO3)nc2c1Cl (stereo unspecified)	63.5 µM (inactive)	37.3 µM (inactive)			82 µM (inactive)		11.7 µM (inactive)		60.3 µM (inactive)	76.7 µM (inactive)	44.3 µM (inactive)	19.5 µM (inactive)	46.3 µM (inactive)		> 100 µM (inactive)		> 100 µM (inactive)	46.5 µM (inactive)	> 100 µM (inactive)
O=C(O)c1ccc(/C=N\N(CCO)C2=NCCN2)cc1	> 100 µM (inactive)		> 100 µM (inactive)	> 100 µM (inactive)	> 100 µM (inactive)	> 100 µM (inactive)	> 100 µM (inactive)	> 100 µM (inactive)	> 100 µM (inactive)	> 100 µM (inactive)	> 100 µM (inactive)	> 100 µM (inactive)	> 100 µM (inactive)	> 100 µM (inactive)	> 100 µM (inactive)	> 100 µM (inactive)	> 100 µM (inactive)	> 100 µM (inactive)	
CC1=NC2=Nc3nc(C)cc[n+]3CN2C=C1	> 100 µM (inactive)	> 100 µM (inactive)	> 100 µM (inactive)	> 100 µM (inactive)	> 100 µM (inactive)	> 100 µM (inactive)	> 100 µM (inactive)	> 100 µM (inactive)	44.2 µM (inactive)	54.7 µM (inactive)	40 µM (inactive)	30.7 µM (inactive)	> 100 µM (inactive)		> 100 µM (inactive)	19.1 µM (inactive)	> 100 µM (inactive)	92.5 µM (inactive)	> 100 µM (inactive)
C[n+]1cn(C2=C([N-]S(=O)(=O)c3ccccc3)C(=O)c3ccccc3C2=O)c2ccccc21	20 µM (inactive)	11.9 µM (inactive)	> 100 µM (inactive)	> 100 µM (inactive)	27.9 µM (inactive)	1.59 µM (inactive)	41.9 µM (inactive)	28.6 µM (inactive)	22.5 µM (inactive)	20.1 µM (inactive)	2.79 µM (inactive)	> 100 µM (inactive)	22.1 µM (inactive)	13 µM (inactive)	52.7 µM (inactive)	71.3 µM (inactive)	> 100 µM (inactive)	31.3 µM (inactive)	
COC(=O)CCC(NC(=O)C(C)NC(=O)COC1C(O)C(OC(=O)CCNc2c3ccccc3nc3cccc([N+](=O)[O-])c23)OC(OCc2ccccc2)C1NC(C)=O)C(N)=O (stereo unspecified)	6.5 µM (inactive)		> 10 µM (inactive)	3.61 µM (inactive)	> 10 µM (inactive)		> 10 µM (inactive)	0.114 µM (active)	3.08 µM (inactive)	3.48 µM (inactive)	3.39 µM (inactive)	> 10 µM (inactive)	2.28 µM (inactive)		2.6 µM (inactive)		> 10 µM (inactive)	4.2 µM (inactive)	> 10 µM (inactive)
CC(C)CC(N)C(=O)Nc1ccc2ccccc2c1 (stereo unspecified)	> 100 µM (inactive)	> 100 µM (inactive)	> 100 µM (inactive)	> 100 µM (inactive)	> 100 µM (inactive)	9.4 µM (inactive)	> 100 µM (inactive)	> 100 µM (inactive)	> 100 µM (inactive)	> 100 µM (inactive)		> 100 µM (inactive)	> 100 µM (inactive)	98.2 µM (inactive)	> 100 µM (inactive)	> 100 µM (inactive)	> 100 µM (inactive)	> 100 µM (inactive)	> 100 µM (inactive)
O=C(CCCN1CCC2(CC1)NC(=O)c1ccccc1O2)c1ccc(F)cc1	> 100 µM (inactive)	> 100 µM (inactive)	73.5 µM (inactive)	> 100 µM (inactive)	73.8 µM (inactive)	91 µM (inactive)	96.8 µM (inactive)	> 100 µM (inactive)	> 100 µM (inactive)	> 100 µM (inactive)	> 100 µM (inactive)	> 100 µM (inactive)	94.6 µM (inactive)	85.3 µM (inactive)	> 100 µM (inactive)	76.6 µM (inactive)	87.1 µM (inactive)	> 100 µM (inactive)	
CCNc1cc2oc(=O)cc(C(F)(F)F)c2cc1C	> 100 µM (inactive)	> 100 µM (inactive)	> 100 µM (inactive)	> 100 µM (inactive)	> 100 µM (inactive)	> 100 µM (inactive)	> 100 µM (inactive)	> 100 µM (inactive)	> 100 µM (inactive)	> 100 µM (inactive)	> 100 µM (inactive)	31.3 µM (inactive)	> 100 µM (inactive)		> 100 µM (inactive)	> 100 µM (inactive)	> 100 µM (inactive)	> 100 µM (inactive)	> 100 µM (inactive)
COc1cc2c(cc1OCCCNC(=O)c1cc3ccccc3[nH]1)N=C[C@@H]1CCCN1C2=O	0.301 µM (active)	0.0141 µM (active)	0.318 µM (active)	0.347 µM (active)	0.358 µM (active)	0.403 µM (active)	0.23 µM (active)	0.378 µM (active)	0.234 µM (active)	0.466 µM (active)	0.243 µM (active)	1.02 µM (active)	0.258 µM (active)		0.223 µM (active)	0.474 µM (active)	0.352 µM (active)	0.409 µM (active)	0.0527 µM (active)
Nc1nccc(-c2c[nH]c3cc(Br)ccc23)n1 [MERIDIANIN D]	35.7 µM (inactive)	17.7 µM (inactive)	18.7 µM (inactive)	19.8 µM (inactive)	30.1 µM (inactive)	48.9 µM (inactive)	25.9 µM (inactive)	33.3 µM (inactive)	22 µM (inactive)	33.2 µM (inactive)	26.5 µM (inactive)	1.59 µM (inactive)	19.9 µM (inactive)	29.2 µM (inactive)	34.5 µM (inactive)	22.6 µM (inactive)	17.5 µM (inactive)	21.7 µM (inactive)	
